Measured values: PubChem BioAssay AID330 (DTP/NCI, 2004)
Values joined by “and” are separate entries in the source; they are usually repeats but may differ in a detail not shown here. Equal values may be shown once. Toxic doses and inconclusive results are not listed. How the source made its calls: active means survival T/C of 150% or more; inactive means T/C below 125% in these data.

Test system: P388 leukemia ip, CD2F1 mice, survival T/C
Experiment: NCI In Vivo Anticancer Drug Screen. Data for tumor model P388 Leukemia (intraperitoneal) in CD2F1 (CDF1) mice
Conditions: endpoint: median survival time, higher = longer survival
In short: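 Mice carrying the transplanted tumor received test compound or vehicle. Survival was recorded in each group, and the value is the treated-group measurement divided by that of the vehicle-treated control group.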

[1] = dose: 12.5 mg/kg/injection, schedule: Q01DX005 (ip), vehicle: Klucel (hydroxypropylcellulose) (HPC)
[2] = dose: 25.0 mg/kg/injection, schedule: Q01DX005 (ip), vehicle: Klucel (hydroxypropylcellulose) (HPC)
[3] = dose: 50.0 mg/kg/injection, schedule: Q01DX005 (ip), vehicle: Klucel (hydroxypropylcellulose) (HPC)
[4] = dose: 50.0 mg/kg/injection, schedule: Q01DX009 (ip), vehicle: Klucel (hydroxypropylcellulose) (HPC)
[5] = dose: 100.0 mg/kg/injection, schedule: Q01DX009 (ip), vehicle: Klucel (hydroxypropylcellulose) (HPC)
[6] = dose: 50.0 mg/kg/injection, schedule: Q01DX005 (ip), vehicle: saline with Tween-80
[7] = dose: 100.0 mg/kg/injection, schedule: Q01DX005 (ip), vehicle: saline with Tween-80
[8] = dose: 200.0 mg/kg/injection, schedule: Q01DX005 (ip), vehicle: saline with Tween-80
[9] = dose: 30.0 mg/kg/injection, schedule: Q01DX005 (ip), vehicle: Klucel (hydroxypropylcellulose) (HPC)
[10] = dose: 60.0 mg/kg/injection, schedule: Q01DX005 (ip), vehicle: Klucel (hydroxypropylcellulose) (HPC)
[11] = dose: 120.0 mg/kg/injection, schedule: Q01DX005 (ip), vehicle: Klucel (hydroxypropylcellulose) (HPC)
[12] = dose: 240.0 mg/kg/injection, schedule: Q01DX005 (ip), vehicle: Klucel (hydroxypropylcellulose) (HPC)
[13] = dose: 100.0 mg/kg/injection, schedule: Q01DX001 (ip), vehicle: Klucel (hydroxypropylcellulose) (HPC)
[14] = dose: 200.0 mg/kg/injection, schedule: Q01DX001 (ip), vehicle: Klucel (hydroxypropylcellulose) (HPC)
[15] = dose: 100.0 mg/kg/injection, schedule: Q01DX005 (ip), vehicle: Klucel (hydroxypropylcellulose) (HPC)
[16] = dose: 200.0 mg/kg/injection, schedule: Q01DX005 (ip), vehicle: Klucel (hydroxypropylcellulose) (HPC)
[17] = dose: 200.0 mg/kg/injection, schedule: Q01DX009 (ip), vehicle: Klucel (hydroxypropylcellulose) (HPC)

Measured: T/C

CC(C)CCNc1ncnc2c1cnn2C
inactive: dose: 25.0 mg/kg/injection, schedule: Q04DX003 (ip), vehicle: saline 95 % of control | dose: 50.0 mg/kg/injection, schedule: Q04DX003 (ip), vehicle: saline 100 % of control | dose: 100.0 mg/kg/injection, schedule: Q04DX003 (ip), vehicle: saline with Tween-80 109 % of control

CC(=O)OCC1=C(C)CC(C(C)C2CCC3C4CC5OC56C(OC(C)=O)C(N5CC5)CC(=O)C6(C)C4CCC23C)OC1=O (stereo not drawn)
inactive: dose: 3.12 mg/kg/injection, schedule: Q01DX005 (ip), vehicle: Klucel (hydroxypropylcellulose) (HPC) 100 % of control | dose: 6.25 mg/kg/injection, schedule: Q01DX005 (ip), vehicle: Klucel (hydroxypropylcellulose) (HPC) 98 % of control | [1] 104 % of control | [2] 112 % of control | [3] 110 % of control

C#CCOc1ccccc1/C(Cl)=N/Nc1ccc([N+](=O)[O-])cc1[N+](=O)[O-]
inactive: dose: 6.25 mg/kg/injection, schedule: Q01DX009 (ip), vehicle: saline with Tween-80 97 % of control | dose: 25.0 mg/kg/injection, schedule: Q01DX009 (ip), vehicle: saline with Tween-80 90 % of control

O=c1[nH]c(=O)n(Cl)c(=O)n1Cl
inactive: [4] 116 % of control | [5] 99 % of control

ClCCN1c2ccc3ccccc3c2Sc2c1ccc1ccccc21
inactive: [6] 96 % of control | [7] 92 % of control | [8] 97 % of control

Cc1ccc(-c2cc(=O)c3cc(C)c(C)c(C#N)c3o2)cc1
inactive: dose: 15.0 mg/kg/injection, schedule: Q01DX005 (ip), vehicle: Klucel (hydroxypropylcellulose) (HPC) 94 % of control | [9] 87 % of control and 90 % of control | [10] 90 % of control | [11] 86 % of control and 88 % of control | [12] 96 % of control

O=C(Nc1ccc(NC2=NCCN2)cc1)c1cc(Cl)cc(C(=O)Nc2ccc(NC3=NCCN3)cc2)c1
inactive: [1] 98 % of control | [2] 102 % of control

COc1ccc(C2OC3=C(Nc4ccc(Cl)cc4N3)C2=O)cc1 (stereo not drawn)
inactive: [9] 98 % of control | [10] 94 % of control | [11] 93 % of control and 97 % of control | [12] 98 % of control

COc1cc2c(C)c3ccccc3c(C)c2c2ccccc12
inactive: [13] 101 % of control | [14] 110 % of control | dose: 400.0 mg/kg/injection, schedule: Q01DX001 (ip), vehicle: Klucel (hydroxypropylcellulose) (HPC) 105 % of control

O=C1C=CC(=CC=C2C=CN(CCCCCCO)C=C2)C=C1
inactive: dose: 60.0 mg/kg/injection, schedule: Q01DX005 (ip), vehicle: saline with Tween-80 105 % of control | dose: 120.0 mg/kg/injection, schedule: Q01DX005 (ip), vehicle: saline with Tween-80 116 % of control | dose: 240.0 mg/kg/injection, schedule: Q01DX005 (ip), vehicle: saline with Tween-80 122 % of control

Cc1ccc(S(=O)(=O)NC2CC3(C)CCC2C3(C)C)cc1 (stereo not drawn)
inactive: [3] 94 % of control | [15] 97 % of control | [16] 87 % of control

CC(C)=CCN=c1ncn(CCC(N)C(=O)O)c2nc[nH]c12 (stereo not drawn)
inactive: dose: 3.0 mg/kg/injection, schedule: Q01DX009 (ip), vehicle: Klucel (hydroxypropylcellulose) (HPC) 109 % of control | dose: 6.0 mg/kg/injection, schedule: Q01DX009 (ip), vehicle: Klucel (hydroxypropylcellulose) (HPC) 105 % of control | dose: 12.0 mg/kg/injection, schedule: Q01DX009 (ip), vehicle: Klucel (hydroxypropylcellulose) (HPC) 115 % of control | dose: 24.0 mg/kg/injection, schedule: Q01DX009 (ip), vehicle: Klucel (hydroxypropylcellulose) (HPC) 118 % of control | dose: 48.0 mg/kg/injection, schedule: Q01DX009 (ip), vehicle: Klucel (hydroxypropylcellulose) (HPC) 108 % of control

C=C(C)[C@H]1C[C@]2(C)[C@@H](C)CC(=O)C[C@H]2[C@@H](OC(=O)/C(C)=C\C)[C@@H]1OC(=O)/C(C)=C/C
inactive: dose: 130.0 mg/kg/injection, schedule: Q01DX001 (ip), vehicle: Klucel (hydroxypropylcellulose) (HPC) 100 % of control | dose: 260.0 mg/kg/injection, schedule: Q01DX001 (ip), vehicle: Klucel (hydroxypropylcellulose) (HPC) 99 % of control | dose: 520.0 mg/kg/injection, schedule: Q01DX001 (ip), vehicle: Klucel (hydroxypropylcellulose) (HPC) 100 % of control

COc1c(O)ccc2c1CCCCC2=O
inactive: dose: 100.0 mg/kg/injection, schedule: Q01DX009 (ip), vehicle: saline with Tween-80 103 % of control | dose: 200.0 mg/kg/injection, schedule: Q01DX009 (ip), vehicle: saline with Tween-80 110 % of control | dose: 400.0 mg/kg/injection, schedule: Q01DX009 (ip), vehicle: saline with Tween-80 106 % of control

CC1(c2cc(Cl)c(Cl)cc2Cl)NC(=O)NC1=O (stereo not drawn)
inactive: dose: 100.0 mg/kg/injection, schedule: Q01DX001 (ip), vehicle: saline with Tween-80 103 % of control | dose: 200.0 mg/kg/injection, schedule: Q01DX001 (ip), vehicle: saline with Tween-80 112 % of control

CCCCCCCOc1ccc(C(=O)O)cc1
inactive: dose: 12.5 mg/kg/injection, schedule: Q01DX009 (ip), vehicle: Klucel (hydroxypropylcellulose) (HPC) 105 % of control | dose: 25.0 mg/kg/injection, schedule: Q01DX009 (ip), vehicle: Klucel (hydroxypropylcellulose) (HPC) 111 % of control | [4] 107 % of control

CCC/C=C1/OC(=O)C2=C[C@H]3CC[C@]21[C@]1(OC(=O)C2=C1CCC=C2)[C@H]3CCC
inactive: dose: 7.0 mg/kg/injection, schedule: Q01DX005 (ip), vehicle: Klucel (hydroxypropylcellulose) (HPC) 104 % of control | dose: 14.0 mg/kg/injection, schedule: Q01DX005 (ip), vehicle: Klucel (hydroxypropylcellulose) (HPC) 100 % of control | dose: 28.0 mg/kg/injection, schedule: Q01DX005 (ip), vehicle: Klucel (hydroxypropylcellulose) (HPC) 106 % of control | dose: 56.0 mg/kg/injection, schedule: Q01DX005 (ip), vehicle: Klucel (hydroxypropylcellulose) (HPC) 97 % of control

CC1=CCC(=O)C=[N+]1Cc1ccccc1
inactive: dose: 6.25 mg/kg/injection, schedule: Q01DX005 (ip), vehicle: saline 114 % of control | dose: 12.5 mg/kg/injection, schedule: Q01DX005 (ip), vehicle: saline 100 % of control

COc1ccc(C(=O)/C=C/c2ccc(OC)c(OC)c2OCc2ccccc2)c(O)c1
inactive: [13] 94 % of control | [14] 88 % of control

C=C(C)C(=O)OCCN(CC)CC
inactive: [6] 100 % of control | [7] 99 % of control | [8] 100 % of control

NC(CS)C(=O)O.[Cl-].[Cl-].[Cl-].[Cl-].[Pt+2] (stereo not drawn)
inactive: dose: 12.5 mg/kg/injection, schedule: Q01DX009 (ip), vehicle: saline 104 % of control | dose: 25.0 mg/kg/injection, schedule: Q01DX009 (ip), vehicle: saline 95 % of control | dose: 50.0 mg/kg/injection, schedule: Q01DX009 (ip), vehicle: saline 95 % of control | dose: 100.0 mg/kg/injection, schedule: Q01DX009 (ip), vehicle: saline 99 % of control | dose: 200.0 mg/kg/injection, schedule: Q01DX009 (ip), vehicle: saline 95 % of control

C=C1C(=O)OC2(C)CCCCC12 (stereo not drawn)
inactive: [4] 92 % of control | [5] 100 % of control | [17] 93 % of control

C(CCC[Si]12OCCN(CCO1)CCO2)CC[Si]12OCCN(CCO1)CCO2
inactive: [3] 102 % of control | [15] 93 % of control | [16] 91 % of control

NCC1CC2CCC1CC2 (stereo not drawn)
inactive: dose: 12.5 mg/kg/injection, schedule: Q01DX005 (ip), vehicle: saline with Tween-80 99 % of control | dose: 25.0 mg/kg/injection, schedule: Q01DX005 (ip), vehicle: saline with Tween-80 100 % of control | [6] 100 % of control and 102 % of control

N#CC(Cc1ccccc1)c1ccc(Cl)cc1 (stereo not drawn)
inactive: [4] 106 % of control | [5] 110 % of control | [17] 104 % of control | dose: 400.0 mg/kg/injection, schedule: Q01DX009 (ip), vehicle: Klucel (hydroxypropylcellulose) (HPC) 109 % of control

O=S(=O)(O)C(O)C(F)(F)C(F)(F)C(F)(F)C(F)(F)C(O)S(=O)(=O)O (stereo not drawn)
inactive: dose: 60.0 mg/kg/injection, schedule: Q01DX005 (ip), vehicle: saline 103 % of control | dose: 120.0 mg/kg/injection, schedule: Q01DX005 (ip), vehicle: saline 103 % of control | dose: 240.0 mg/kg/injection, schedule: Q01DX005 (ip), vehicle: saline 103 % of control
